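Cells were grown in 96-well plates and exposed to each compound for 48 hours at five concentrations; endpoints were interpolated linearly between bracketing concentrations, or set to the highest concentration if not reached. The concentration for full growth arrest is given as TGI.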
Assays:
Assay in all cases: DTP human tumour cell line panel, 48 h
SF-268 CNS = system: SF-268 CNS
A498 renal = system: A498 renal
SK-MEL-5 melanoma = system: SK-MEL-5 melanoma
HCT-15 colon = system: HCT-15 colon
NCI-H460 lung = system: NCI-H460 lung
M14 melanoma = system: M14 melanoma
OVCAR-4 ovarian = system: OVCAR-4 ovarian
SNB-19 CNS = system: SNB-19 CNS
PC-3 prostate = system: PC-3 prostate
T-47D breast = system: T-47D breast
EKVX NSCLC = system: EKVX NSCLC
786-0 renal = system: 786-0 renal
HOP-62 NSCLC = system: HOP-62 NSCLC
TK-10 renal = system: TK-10 renal
KM12 colon = system: KM12 colon
MDA-N = system: MDA-N
COLO 205 colon = system: COLO 205 colon
MOLT-4 leukemia = system: MOLT-4 leukemia
MALME-3M melanoma = system: MALME-3M melanoma
NCI/ADR-RES ovarian = system: NCI/ADR-RES ovarian
SN12C renal = system: SN12C renal
RPMI-8226 leukemia = system: RPMI-8226 leukemia
U251 CNS = system: U251 CNS
HOP-92 NSCLC = system: HOP-92 NSCLC
NCI-H23 lung = system: NCI-H23 lung
CCRF-CEM leukemia = system: CCRF-CEM leukemia
SW-620 colon = system: SW-620 colon
UO-31 renal = system: UO-31 renal
SK-MEL-28 melanoma = system: SK-MEL-28 melanoma
LOX IMVI melanoma = system: LOX IMVI melanoma
OVCAR-5 ovarian = system: OVCAR-5 ovarian
BT-549 breast = system: BT-549 breast
IGROV1 ovarian = system: IGROV1 ovarian
CAKI-1 renal = system: CAKI-1 renal
UACC-62 melanoma = system: UACC-62 melanoma
RXF 393 renal = system: RXF 393 renal
HL-60(TB) leukemia = system: HL-60(TB) leukemia
HT29 colon = system: HT29 colon
ACHN renal = system: ACHN renal
MCF7 breast = system: MCF7 breast
OVCAR-8 ovarian = system: OVCAR-8 ovarian
SK-MEL-2 melanoma = system: SK-MEL-2 melanoma
MDA-MB-231 breast = system: MDA-MB-231 breast
HS 578T breast = system: HS 578T breast
DU-145 prostate = system: DU-145 prostate
SK-OV-3 ovarian = system: SK-OV-3 ovarian
NCI-H522 lung = system: NCI-H522 lung
MDA-MB-435 = system: MDA-MB-435
HCT-116 colon = system: HCT-116 colon
A549 NSCLC = system: A549 NSCLC
SF-295 CNS = system: SF-295 CNS
UACC-257 melanoma = system: UACC-257 melanoma
SF-539 CNS = system: SF-539 CNS
OVCAR-3 ovarian = system: OVCAR-3 ovarian
HCC-2998 colon = system: HCC-2998 colon
SR leukemia = system: SR leukemia
SNB-75 CNS = system: SNB-75 CNS
NCI-H226 lung = system: NCI-H226 lung
K-562 leukemia = system: K-562 leukemia

`CC(=O)N(C(C)=O)n1nc2c(n1)C(=O)c1ccccc1C2=O` showed a TGI (SF-268 CNS) of over 100 µM, a TGI (A498 renal) of over 100 µM and a TGI (SK-MEL-5 melanoma) of over 100 µM. The TGI (HCT-15 colon) was over 100 µM, the TGI (NCI-H460 lung) was over 100 µM and the TGI (M14 melanoma) was over 100 µM. For the same compound, the TGI (OVCAR-4 ovarian) was over 100 µM, the TGI (SNB-19 CNS) was over 100 µM and the TGI (PC-3 prostate) was over 100 µM. The TGI (T-47D breast) was over 100 µM, the TGI (EKVX NSCLC) was over 100 µM and the TGI (786-0 renal) was over 100 µM. The TGI (HOP-62 NSCLC) was over 100 µM, the TGI (TK-10 renal) was over 100 µM and the TGI (KM12 colon) was over 100 µM. The TGI (MDA-N) was over 100 µM, the TGI (COLO 205 colon) was over 100 µM and the TGI (MOLT-4 leukemia) was over 100 µM. For the same compound, the TGI (MALME-3M melanoma) was over 100 µM, the TGI (NCI/ADR-RES ovarian) was over 100 µM and the TGI (SN12C renal) was over 100 µM. The TGI (RPMI-8226 leukemia) was over 100 µM, the TGI (U251 CNS) was over 100 µM and the TGI (HOP-92 NSCLC) was over 100 µM. The TGI (NCI-H23 lung) was over 100 µM, the TGI (CCRF-CEM leukemia) was over 100 µM and the TGI (SW-620 colon) was over 100 µM. It also gave a TGI (UO-31 renal) of over 100 µM, a TGI (SK-MEL-28 melanoma) of over 100 µM and a TGI (LOX IMVI melanoma) of over 100 µM. For the same compound, the TGI (OVCAR-5 ovarian) was over 100 µM, the TGI (BT-549 breast) was over 100 µM and the TGI (IGROV1 ovarian) was over 100 µM. For the same compound, the TGI (CAKI-1 renal) was over 100 µM, the TGI (UACC-62 melanoma) was over 100 µM and the TGI (RXF 393 renal) was over 100 µM. It also gave a TGI (HL-60(TB) leukemia) of over 100 µM, a TGI (HT29 colon) of over 100 µM and a TGI (ACHN renal) of over 100 µM. The TGI (MCF7 breast) was over 100 µM, the TGI (OVCAR-8 ovarian) was over 100 µM and the TGI (SK-MEL-2 melanoma) was over 100 µM. For the same compound, the TGI (MDA-MB-231 breast) was over 100 µM, the TGI (HS 578T breast) was over 100 µM and the TGI (DU-145 prostate) was over 100 µM. The TGI (SK-OV-3 ovarian) was over 100 µM, the TGI (NCI-H522 lung) was over 100 µM and the TGI (MDA-MB-435) was over 100 µM. It also gave a TGI (HCT-116 colon) of over 100 µM, a TGI (A549 NSCLC) of over 100 µM and a TGI (SF-295 CNS) of over 100 µM. The TGI (UACC-257 melanoma) was over 100 µM, the TGI (SF-539 CNS) was over 100 µM and the TGI (OVCAR-3 ovarian) was over 100 µM.

`COc1ccc(-c2nc3cc(C(F)(F)F)ccc3n2CC2CCCN3CCCCC23)cc1` (stereo unspecified) showed a TGI (SF-268 CNS) of 28.6 µM, a TGI (A498 renal) of 26.2 µM and a TGI (SK-MEL-5 melanoma) of 27.5 µM. For the same compound, the TGI (HCT-15 colon) was 29.1 µM, the TGI (NCI-H460 lung) was 29.2 µM and the TGI (M14 melanoma) was 25.6 µM. The TGI (OVCAR-4 ovarian) was 39.7 µM, the TGI (PC-3 prostate) was 26.5 µM and the TGI (T-47D breast) was 48.2 µM. It also gave a TGI (EKVX NSCLC) of 24.5 µM, a TGI (786-0 renal) of 35.6 µM and a TGI (HOP-62 NSCLC) of 38.5 µM. For the same compound, the TGI (TK-10 renal) was 30.2 µM, the TGI (KM12 colon) was 45.2 µM and the TGI (MDA-N) was 33.4 µM. For the same compound, the TGI (MOLT-4 leukemia) was 28.7 µM, the TGI (NCI/ADR-RES ovarian) was 27.1 µM and the TGI (HCC-2998 colon) was 24.5 µM. The TGI (RPMI-8226 leukemia) was 28.4 µM, the TGI (U251 CNS) was 30.7 µM and the TGI (SR leukemia) was 31.3 µM. The TGI (HOP-92 NSCLC) was 27.9 µM, the TGI (NCI-H23 lung) was 29 µM and the TGI (CCRF-CEM leukemia) was 31.4 µM. The TGI (SW-620 colon) was 28.5 µM, the TGI (UO-31 renal) was 38.8 µM and the TGI (SK-MEL-28 melanoma) was 28.2 µM. For the same compound, the TGI (LOX IMVI melanoma) was 28.3 µM, the TGI (OVCAR-5 ovarian) was 62.9 µM and the TGI (SNB-75 CNS) was 28.8 µM. The TGI (NCI-H226 lung) was 32.3 µM, the TGI (IGROV1 ovarian) was 26.9 µM and the TGI (CAKI-1 renal) was 59.6 µM. It also gave a TGI (K-562 leukemia) of 28 µM, a TGI (RXF 393 renal) of 33.8 µM and a TGI (HL-60(TB) leukemia) of 30.6 µM. It also gave a TGI (HT29 colon) of 26.1 µM, a TGI (ACHN renal) of 29 µM and a TGI (MCF7 breast) of 25.9 µM. For the same compound, the TGI (OVCAR-8 ovarian) was 30.8 µM, the TGI (SK-MEL-2 melanoma) was 28.9 µM and the TGI (MDA-MB-231 breast) was 27.7 µM. For the same compound, the TGI (HS 578T breast) was 31.1 µM, the TGI (DU-145 prostate) was 30.8 µM and the TGI (SK-OV-3 ovarian) was 33.7 µM. For the same compound, the TGI (NCI-H522 lung) was 29.2 µM, the TGI (MDA-MB-435) was 34.3 µM and the TGI (HCT-116 colon) was 33.6 µM. For the same compound, the TGI (SF-295 CNS) was 36.6 µM, the TGI (UACC-257 melanoma) was 26.7 µM and the TGI (SF-539 CNS) was 30.5 µM. For the same compound, the TGI (OVCAR-3 ovarian) was 37.1 µM.
